Key:
[1] = tested on: Botryotinia Fuckeliana(Botrytis Cinerea); experiment: Botryotinia fuckeliana (Botrytis cinerea) / liquid culture (gray mould); assay type: cell-based; details: Vogels broth, 24° C., 3-4 days after application, read-out: disease control (inhibition of growth, photometrically)
Protocol: (§1) 9 Botryotinia Fuckeliana(Botrytis Cinerea)/Liquid Culture (Gray Mould) Conidia of the fungus from cryogenic storage were directly mixed into nutrient broth (Vogels broth). After placing a DMSO solution of test compound into a 96-well microtiter plate, the nutrient broth containing the fungal spores was added. The test plates were incubated at 24° C. and the inhibition of growth was determined photometrically 3-4 days after application.

[2] = tested on: Pythium Ultimum; experiment: Pythium ultimum / liquid culture (seedling damping off); assay type: cell-based; details: Globisporangium ultimum, potato dextrose broth, 24° C., 2-3 days after application, read-out: disease control (inhibition of growth, photometrically)
[3] = tested on: Sclerotinia Sclerotiorum; experiment: Sclerotinia sclerotiorum / liquid culture (cottony rot); assay type: cell-based; details: PDB potato dextrose broth, 24° C., 3-4 days after application, read-out: disease control (inhibition of growth, visually)
Protocol: 17 Sclerotinia Sclerotiorum/Liquid Culture (Cottony Rot) Mycelia fragments of a newly grown liquid culture of the fungus were directly mixed into nutrient broth (PDB potato dextrose broth). After placing a (DMSO) solution of the test compounds into a microtiter plate (96-well format) the nutrient broth containing the fungal material was added. The test plates were incubated at 24° C. and the inhibition of growth was determined visually 3-4 days after application.

[4] = tested on: Thanatephorus Cucumeris(Rhizoctonia Solani); experiment: Thanatephorus cucumeris (Rhizoctonia solani) / liquid culture (foot rot, damping-off); assay type: cell-based; details: PDB potato dextrose broth, 24° C., 3-4 days after application, read-out: disease control (inhibition of growth, photometrically)
Protocol: 16 Thanatephorus Cucumeris(Rhizoctonia Solani)/Liquid Culture (Foot Rot, Damping-Off) Mycelia fragments of a newly grown liquid culture of the fungus were directly mixed into nutrient broth (PDB potato dextrose broth). After placing a DMSO solution of the test compounds into a 96-well microtiter plate at an application rate of 200 ppm, the nutrient broth containing the fungal material was added. The test plates were incubated at 24° C. and the inhibition of growth was determined photometrically 3-4 days after application.

[5] = tested on: Gaeumannomyces Graminis; experiment: Gaeumannomyces graminis / liquid culture (take-all of cereals); assay type: cell-based; details: PDB potato dextrose broth, 24° C., 4-5 days after application, read-out: disease control (inhibition of growth, photometrically)
Protocol: (§2) 13 Gaeumannomyces Graminis/Liquid Culture (Take-all of Cereals) Mycelial fragments of the fungus from cryogenic storage were directly mixed into nutrient broth (PDB potato dextrose broth). After placing a DMSO solution of test compound into a 96-well microtiter plate, the nutrient broth containing the fungal spores is added. The test plates were incubated at 24° C. and the inhibition of growth was determined photometrically 4-5 days after application.

[6] = tested on: Glomerella Lagenarium(Colletotrichum Ladenarium); experiment: Glomerella lagenarium (Colletotrichum lagenarium) / liquid culture (anthracnose); assay type: cell-based; details: PDB potato dextrose broth, 24° C., 3-4 days after application, read-out: disease control (inhibition of growth, photometrically)
Protocol: as §1, with “10 Glomerella Lagenarium(Colletotrichum Ladenarium)/Liquid” for “9 Botryotinia Fuckeliana(Botrytis Cinerea)/Liquid”, “(Anthracnose)” for “(Gray Mould)”, “(PDB potato dextrose” for “(Vogels”, “measured” for “determined”

[7] = tested on: Fusarium Culmorum; experiment: microbe, parasite or virus in culture; assay type: cell-based; details: read-out: disease control (inhibition of growth, photometrically)
[8] = tested on: Monographella Nivalis(Microdochium Nivale); experiment: Monographella nivalis (Microdochium nivale) / liquid culture (foot rot cereals); assay type: cell-based; details: PDB potato dextrose broth, 24° C., 4-5 days after application, read-out: disease control (inhibition of growth, photometrically)
Protocol: as §2, with “14 Monographella Nivalis(Microdochium Nivale)/Liquid” for “13 Gaeumannomyces Graminis/Liquid”, “(Foot Rot” for “(Take-all of”, “Conidia” for “Mycelial fragments”, “was” for “is”

[9] = tested on: Plasmopara Viticola; experiment: whole plant or invertebrate; assay type: in vivo; details: foliar, read-out: disease control
[10] = tested on: Mycosphaerella Arachidis(Cercospora Arachidicola); experiment: Mycosphaerella arachidis (Cercospora arachidicola) / liquid culture (early leaf spot); assay type: cell-based; details: PDB potato dextrose broth, 24° C., 4-5 days after application, read-out: disease control (inhibition of growth, photometrically)
Protocol: as §2, with “11 Mycosphaerella Arachidis(Cercospora Arachidicola)/Liquid” for “13 Gaeumannomyces Graminis/Liquid”, “(Early Leaf Spot) Conidia” for “(Take-all of Cereals) Mycelial fragments”, “was” for “is”

[11] = tested on: Mycosphaerella Graminicola(Septoria Tritici); experiment: Mycosphaerella graminicola (Septoria tritici) / liquid culture (Septoria blotch); assay type: cell-based; details: Zymoseptoria tritici, PDB potato dextrose broth, 24° C., 4-5 days after application, read-out: disease control (inhibition of growth, photometrically)
Protocol: as §2, with “12 Mycosphaerella Graminicola(Septoria Tritici)/Liquid” for “13 Gaeumannomyces Graminis/Liquid”, “(Septoria Blotch) Conidia” for “(Take-all of Cereals) Mycelial fragments”, “was” for “is”

[12] = tested on: Phaeosphaeria Nodorum (Septoria Nodorum); experiment: Phaeosphaeria nodorum (Septoria nodorum) / wheat / leaf disc preventative (glume blotch); assay type: in vivo; details: Parastagonospora nodorum, foliar, wheat leaf segments cv Kanzler, inoculated 2 days after application, assessed 5-7 days after application, read-out: disease control
Protocol: 5 Phaeosphaeria Nodorum (Septoria Nodorum)/Wheat/Leaf Disc Preventative (Glume Blotch) Wheat leaf segments cv Kanzler were placed on agar in a 24-well plate and sprayed with formulated test compound diluted in water. The leaf disks were inoculated with a spore suspension of the fungus 2 days after application. The inoculated test leaf disks were incubated at 20° C. and 75% relative humidity under a light regime of 12/12 h (light/dark) in a climate cabinet and the activity of a compound was assessed as percent disease control compared to untreated when an appropriate level of disease damage appears in untreated check leaf disks (5-7 days after application).

Compound | inhibition at 20 ppm [1] [%] | inhibition at 20 ppm [2] [%] | inhibition at 20 ppm [3] [%] | inhibition at 20 ppm [4] [%] | melting point [°C] | inhibition at 20 ppm [5] [%] | inhibition at 20 ppm [6] [%] | inhibition at 20 ppm [7] [%] | inhibition at 20 ppm [8] [%] | pest or weed control at 200 ppm [9] [%] | inhibition at 20 ppm [10] [%] | inhibition at 20 ppm [11] [%] | pest or weed control at 200 ppm [12] [%]
OB1OCc2cc(F)c(-c3ccco3)cc21 [Compound 5] | ≥ 80 | ≥ 80 | ≥ 80 | ≥ 80 | 155 to 164 | ≥ 80 | ≥ 80 | ≥ 80 | ≥ 80 | ≥ 80 | ≥ 80 | ≥ 80 | –
OB1OCc2cc(Cl)c(-c3ccccn3)cc21 [Compound 8] | ≥ 80 | ≥ 80 | ≥ 80 | – | – | – | ≥ 80 | ≥ 80 | – | ≥ 80 | ≥ 80 | ≥ 80 | ≥ 80
Cn1nnc(-c2ccc3c(c2)B(O)OC3)n1 [Compound 31, 5-(1-hydroxy-3H-2,1-benzoxaborol-6-yl)-2-methyl-tetrazole] | – | ≥ 80 | – | – | 209 to 210 | – | ≥ 80 | – | ≥ 80 | – | ≥ 80 | – | –
OB1OCc2cc(Cl)c(-c3cc4ccccc4[nH]3)cc21 [Compound 72] | – | ≥ 80 | – | ≥ 80 | – | ≥ 80 | ≥ 80 | ≥ 80 | ≥ 80 | ≥ 80 | ≥ 80 | ≥ 80 | –
OB1OCc2cc(Cl)c(-c3sccc3Br)cc21 [Compound 45] | ≥ 80 | ≥ 80 | ≥ 80 | ≥ 80 | – | ≥ 80 | ≥ 80 | ≥ 80 | ≥ 80 | ≥ 80 | ≥ 80 | ≥ 80 | –
Cc1nc(-c2cc3c(cc2F)COB3O)oc1C [Compound 32, 2-(5-fluoro-1-hydroxy-3H-2,1-benzoxaborol-6-yl)-4,5-dimethyl-oxazole] | – | ≥ 80 | – | – | 164 to 166 | – | – | – | ≥ 80 | – | – | – | –
CCc1ccc(-c2cc3c(cc2Cl)COB3O)s1 [Compound 35] | – | ≥ 80 | – | ≥ 80 | – | ≥ 80 | ≥ 80 | ≥ 80 | ≥ 80 | ≥ 80 | ≥ 80 | ≥ 80 | –
OB1OCc2cc(Cl)c(-c3ccoc3)cc21 [Compound 84] | – | ≥ 80 | ≥ 80 | ≥ 80 | – | ≥ 80 | ≥ 80 | ≥ 80 | ≥ 80 | ≥ 80 | ≥ 80 | ≥ 80 | –
OCc1ccc(-c2cc3c(cc2Cl)COB3O)o1 [Compound 40] | ≥ 80 | ≥ 80 | ≥ 80 | – | – | ≥ 80 | ≥ 80 | ≥ 80 | ≥ 80 | – | ≥ 80 | ≥ 80 | –
COc1ncccc1-c1cc2c(cc1F)COB2O [Compound 81] | – | ≥ 80 | ≥ 80 | – | – | ≥ 80 | ≥ 80 | – | ≥ 80 | ≥ 80 | ≥ 80 | ≥ 80 | ≥ 80
OB1OCc2cc(F)c(-c3cncc(Cl)n3)cc21 [Compound 57] | ≥ 80 | ≥ 80 | ≥ 80 | – | – | ≥ 80 | – | ≥ 80 | ≥ 80 | ≥ 80 | ≥ 80 | ≥ 80 | ≥ 80
ON=Cc1ccc(-c2cc3c(cc2Cl)COB3O)o1 (single isomer, unassigned) [Compound 22, 5-(5-chloro-1-hydroxy-3H-2,1-benzoxaborol-6-yl)furan-2-carbaldehyde oxime] | – | ≥ 80 | – | – | 188 to 193 | – | ≥ 80 | – | ≥ 80 | – | – | – | –
Cc1ccc(-c2cc3c(cc2Cl)COB3O)o1 [Compound 36] | ≥ 80 | ≥ 80 | ≥ 80 | ≥ 80 | – | ≥ 80 | ≥ 80 | ≥ 80 | ≥ 80 | ≥ 80 | ≥ 80 | ≥ 80 | –
OB1OCc2cc(Cl)c(-c3cocc3Br)cc21 [Compound 44] | ≥ 80 | ≥ 80 | ≥ 80 | ≥ 80 | – | ≥ 80 | ≥ 80 | ≥ 80 | ≥ 80 | ≥ 80 | ≥ 80 | ≥ 80 | –
O=Cc1ccc(-c2cc3c(cc2Cl)COB3O)o1 [Compound 21, 5-(5-chloro-1-hydroxy-3H-2,1-benzoxaborol-6-yl)furan-2-carbaldehyde] | – | ≥ 80 | ≥ 80 | – | 145 to 165 | ≥ 80 | ≥ 80 | – | ≥ 80 | ≥ 80 | – | ≥ 80 | –
OB1OCc2cc(Cl)c(-c3cncc(Cl)n3)cc21 [Compound 68] | ≥ 80 | ≥ 80 | ≥ 80 | – | – | ≥ 80 | – | – | ≥ 80 | ≥ 80 | ≥ 80 | ≥ 80 | ≥ 80
OB1OCc2cc(F)c(-c3ccoc3)cc21 [Compound 75] | ≥ 80 | ≥ 80 | ≥ 80 | ≥ 80 | – | ≥ 80 | ≥ 80 | ≥ 80 | ≥ 80 | ≥ 80 | ≥ 80 | ≥ 80 | –
